Laboratory results reported in publication PMC9781827, “Isolation and Identification of Anti-Inflammatory Peptide from Goose Blood Hydrolysate to Ameliorate LPS-Mediated Inflammation and Oxidative Stress in RAW264.7 Macrophages” (Molecules, 2022).
Several values for one entry are separate records, joined by “and”; a condition that tells them apart may be missing. Equal values may be shown once.

Legend:
Type in all cases: cell-based
TNF-α = TNF-α level by ELISA in culture medium, model of LPS-mediated RAW264.7 macrophage inflammation; conditions: LPS group: LPS (1.0 μg/mL) alone, 24 h; mean ± S.D., n = 3
Description: (§1) The anti-inflammatory activity of the peptides was determined according to the methods of a previous study. The anti-inflammatory activity of different fractions was evaluated by measuring the levels of the inflammatory cytokines (TNF-α, IL-1β and IL-6) in a model of LPS-induced macrophage inflammation with ELISA kits (Jiangsu Enzyme marker Biotechnology Co., Ltd., Yancheng, China). […] A 20 mmol/L Tris-HCl (pH 8.0) solution was used as the start buffer and 20 mmol/L Tris-HCl/1 mol/L NaCl (pH 8.0) was used as elution buffer. Elution program: (1) wash with 5 column volumes of starting buffer; (2) elute with 10 column volumes of 50% elution buffer and 50% start buffer; (3) elute with 5 column volumes of 100% elution buffer. The above flow rates were 5 mL/min. The fractions were detected at 280 nm by an ultraviolet detector and collected by an automatic fraction collector.
(§2) The method of RAW264.7 macrophage culture and treatments were based on the study of Li et al.. […] Macrophages from passages 5 to 10 were selected to seed on 96-well culture plates at a density of 4 × 10^5 cells/well and cultured with different concentrations of LPS (0.5 μg/mL, 1.0 μg/mL and 2.0 μg/mL) for 24 h. The optimal concentration of LPS for inducing inflammation in the RAW264.7 macrophage was ensured according to cell viability. […] The ability of GBP to protect RAW264.7 macrophages was evaluated. […]

IL-1β = IL-1β level by ELISA in culture medium, model of LPS-mediated RAW264.7 macrophage inflammation; conditions: LPS group: LPS (1.0 μg/mL) alone, 24 h; mean ± S.D., n = 3
Description: as §1, §2

NO = NO level in LPS-mediated RAW264.7 macrophages culture medium (spectrophotometric kit); conditions: LPS group (CTRL 6.47 ± 1.29), mean ± S.D., n = 3
Description: The culture medium was collected and centrifuged at 3000× g for 10 min. Then, the inflammatory cytokines levels of TNF-α (MB-50051A), IL-1β (MB-50064B) and IL-6 (MB-50054A) in the culture medium were determined with ELISA kits (Jiangsu Enzyme marker Biotechnology Co., Ltd., Yancheng, China). […] (7) Add 50 μL of stop solution to each well, and measure its absorbance value at 450 nm wavelength. The activities of SOD, GSH-Px and the levels of ROS and Nitric oxide (NO) in macrophages were determined with spectrophotometric kits. […] The absorbance value of miscible liquid was measured at 450 nm wavelength by a multifunctional microplate reader; GSH-Px: 0.2 mL of sample was mixed with 0.2 mL GSH-Px (1 mmol/L) and performed at 37 °C for 5 min. […] The absorbance value was measured at 412 nm wavelength by a multifunctional microplate reader; ROS: DCFH-DA probe was added directly to serum-free medium: DCFH-DA was generally diluted with serum-free medium at a final concentration of 10 µM at 1:1000. […] In general, obvious green fluorescence can be observed in positive control cells after 20 min of stimulation. […] It can also be detected according to FITC fluorescence detection conditions. The results were expressed as fluorescence values.

IL-6 = IL-6 level by ELISA in culture medium, model of LPS-mediated RAW264.7 macrophage inflammation; conditions: LPS group: LPS (1.0 μg/mL) alone, 24 h; mean ± S.D., n = 3
Description: as §1, §2

lipopolysaccharide [LPS]
level of TNF-α (TNF-α): 271.35 ± 17.35 pg/mL and 273.77 ± 11.93 pg/mL
level of IL-1β (IL-1β): 485.75 ± 50.29 pg/mL
level of NO (NO): 28.63 ± 2.48 μM/L
level of IL-6 (IL-6): 373.01 ± 12.49 pg/mL
